Reference: the supplement of paper PMC10307832

How the values were obtained:
Assay in all cases: relative viability (nuclei count vs DMSO), 5 days (fraction); higher = more cells survive
Irinotecan + Tozasertib = compound: CCc1c2c(nc3ccc(OC(=O)N4CCC(N5CCCCC5)CC4)cc13)-c1cc3c(c(=O)n1C2)COC(=O)[C@]3(O)CC [Irinotecan] + Cc1cc(Nc2cc(N3CCN(C)CC3)nc(Sc3ccc(NC(=O)C4CC4)cc3)n2)n[nH]1 [Tozasertib] (partner 0.1 µM)
How it was run: (§1)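 Nuclei were stained with Hoechst during a one-step fixation (final 0.05% Triton X-100, 1% formaldehyde, 1 ug/ml Hoechst) carried out 5 days after dosing, then counted on 4× images. The cells, lung cancer lines in 1536-well plates, had been dosed by pin tool the day after seeding with one drug alone or a fixed anchor-drug dose plus five library-drug doses (not always all listed) in √10 steps. Relative viability is the nuclei count in treated wells divided by that in vehicle wells, and each value is the median of duplicate plates.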

Irinotecan + Decitabine = compound: CCc1c2c(nc3ccc(OC(=O)N4CCC(N5CCCCC5)CC4)cc13)-c1cc3c(c(=O)n1C2)COC(=O)[C@]3(O)CC [Irinotecan] + Nc1ncn([C@H]2C[C@H](O)[C@@H](CO)O2)c(=O)n1 [Decitabine] (partner 2 µM)
How it was run: as §1

RU-SKI 43 + Lapatinib = compound: CC[C@@H](C)CNCC(=O)N1CCC2=C([C@@H]1COC3=CC=CC(=C3)C)C=CS2 [RU-SKI 43] + CS(=O)(=O)CCNCc1ccc(-c2ccc3ncnc(Nc4ccc(OCc5cccc(F)c5)c(Cl)c4)c3c2)o1 [Lapatinib] (partner 2 µM)
How it was run: as §1

RU-SKI 43 + Foretinib = compound: CC[C@@H](C)CNCC(=O)N1CCC2=C([C@@H]1COC3=CC=CC(=C3)C)C=CS2 [RU-SKI 43] + COc1cc2c(Oc3ccc(NC(=O)C4(C(=O)Nc5ccc(F)cc5)CC4)cc3F)ccnc2cc1OCCCN1CCOCC1 [Foretinib] (partner 0.25 µM)
How it was run: as §1

Cell Line | relative viability (Irinotecan + Tozasertib; first compound 0.6325 µM) | relative viability (Irinotecan + Tozasertib; first compound 2 µM) | relative viability (Irinotecan + Tozasertib; first compound 6.325 µM) | relative viability (Irinotecan + Tozasertib; first compound 20 µM) | relative viability (Irinotecan + Decitabine; first compound 0.6325 µM) | relative viability (Irinotecan + Decitabine; first compound 2 µM) | relative viability (Irinotecan + Decitabine; first compound 6.325 µM) | relative viability (Irinotecan + Decitabine; first compound 20 µM) | relative viability (RU-SKI 43 + Lapatinib; first compound 0.1 µM) | relative viability (RU-SKI 43 + Lapatinib; first compound 0.3162 µM) | relative viability (RU-SKI 43 + Lapatinib; first compound 1 µM) | relative viability (RU-SKI 43 + Lapatinib; first compound 3.162 µM) | relative viability (RU-SKI 43 + Lapatinib; first compound 10 µM) | relative viability (RU-SKI 43 + Foretinib; first compound 0.1 µM) | relative viability (RU-SKI 43 + Foretinib; first compound 0.3162 µM) | relative viability (RU-SKI 43 + Foretinib; first compound 1 µM) | relative viability (RU-SKI 43 + Foretinib; first compound 3.162 µM) | relative viability (RU-SKI 43 + Foretinib; first compound 10 µM)
HCC-827 | 0.318 | 0.307 | 0.249 | 0.175 | 0.337 | 0.326 | 0.174 | 0.221 | 0.189 | 0.197 | 0.211 | 0.213 | 0.162 | 1.01 | 1.11 | 1.11 | 1.07 | 1.01
HOP-62 | 0.234 | 0.328 | 0.249 | 0.215 | 0.22 | 0.198 | 0.187 | 0.212 | 0.973 | 1.28 | 0.883 | 1.03 | 0.877 | 1.1 | 1.2 | 1.15 | 1.24 | 1.13
IA-LM |  |  |  |  |  |  |  |  | 0.717 | 0.956 | 1.02 | 0.79 | 0.731 | 1.25 | 1.28 | 1.49 | 1.18 | 1.13
LC-2-ad | 0.439 | 0.437 | 0.343 | 0.233 | 0.532 | 0.355 | 0.338 | 0.262 | 1.05 | 0.969 | 1 | 0.976 | 0.93 | 0.929 | 0.922 | 0.908 | 1.02 | 0.838
LCLC-97TM1 | 0.14 | 0.176 | 0.125 | 0.113 | 0.135 | 0.107 | 0.105 | 0.115 | 1.08 |  | 1.02 | 1.04 | 0.781 | 0.945 | 0.938 | 1.05 | 1 | 1.04
LCLC-103H | 0.431 | 0.425 | 0.301 | 0.32 | 0.63 | 0.524 | 0.458 | 0.432 |  |  |  |  |  | 0.759 | 0.896 | 0.91 | 0.843 | 0.783
LK-2 | 0.183 | 0.192 | 0.287 | 0.352 | 0.285 | 0.379 | 0.226 | 0.216 | 1.38 | 1.09 | 1.19 | 1.03 | 1.03 | 1.28 | 1.13 | 1.27 | 1.46 | 1.05
LOU-NH91 | 0.568 | 0.533 | 0.358 | 0.222 | 0.79 | 0.768 | 0.492 | 0.311 | 0.796 | 0.685 | 0.815 | 0.749 | 0.754 | 0.953 | 0.912 | 0.914 | 1.01 | 0.897
LU99A | 0.257 | 0.223 | 0.153 | 0.225 | 0.196 | 0.184 | 0.157 | 0.169 | 0.839 | 1.14 | 0.968 | 0.956 | 0.925 | 0.86 | 0.99 | 0.815 | 0.742 | 0.731
LXF-289 | 0.185 | 0.179 | 0.112 | 0.174 | 0.351 | 0.218 | 0.162 | 0.165 | 0.906 | 0.88 | 0.979 | 0.989 | 0.878 | 0.934 | 1.03 | 1.05 | 1.09 | 0.97
NCI-H23 | 0.24 | 0.256 | 0.235 | 0.218 | 0.288 | 0.243 | 0.211 | 0.251 | 0.834 | 1.22 | 1.37 | 1.12 | 0.916 | 1.01 | 0.882 | 1.12 | 1.27 | 0.973
NCI-H322M | 0.461 | 0.511 | 0.411 | 0.202 | 0.602 | 0.725 | 0.548 | 0.342 | 0.586 | 0.635 | 0.671 | 0.635 | 0.604 | 0.939 | 1.09 | 1.11 | 1.03 | 0.892
NCI-H441 | 0.497 | 0.443 | 0.374 | 0.295 | 0.208 | 0.166 | 0.227 | 0.324 |  |  |  |  |  | 0.981 | 1.01 | 1.09 | 1.04 | 0.842
NCI-H522 | 0.506 | 0.502 | 0.526 | 0.486 | 0.605 | 0.492 | 0.577 | 0.636 |  |  |  |  |  |  |  |  |  | 
NCI-H1299 |  |  |  |  |  |  |  |  | 0.965 | 1.03 | 1.05 | 0.941 | 0.95 | 1.08 | 1.1 | 1.14 | 1.12 | 1.09
NCI-H1563 |  |  |  |  |  |  |  |  | 0.871 | 0.874 | 0.879 | 0.913 | 0.765 | 0.918 | 0.985 | 0.957 | 0.855 | 0.755
NCI-H1623 | 0.343 | 0.34 | 0.227 | 0.227 |  |  |  |  |  |  |  |  |  | 0.802 | 0.871 | 0.922 | 0.826 | 0.711
NCI-H1648 | 0.39 | 0.346 | 0.402 | 0.291 | 0.501 | 0.469 | 0.446 | 0.428 |  |  |  |  |  |  |  |  |  | 
NCI-H1703 |  |  |  |  |  |  |  |  |  | 1.86 | 1.11 | 1.16 | 0.637 | 0.388 | 0.33 | 0.297 | 0.337 | 0.295
NCI-H1792 |  |  |  |  | 0.405 | 0.522 | 0.287 | 0.228 | 0.937 | 1.14 | 1.42 | 0.88 | 0.973 |  |  |  |  | 
NCI-H2228 | 0.259 | 0.31 | 0.348 | 0.287 |  |  |  |  | 1.05 | 1.3 | 1.45 | 1.29 | 0.891 | 0.769 | 0.988 | 0.879 | 0.863 | 0.726
NCI-H2342 | 0.488 | 0.528 | 0.445 | 0.372 | 0.732 | 0.789 | 0.68 | 0.436 |  |  |  |  |  | 0.967 | 1.09 | 1.01 | 1.06 | 1.02
SW 900 | 0.379 | 0.528 | 0.439 | 0.485 |  | 0.4 | 0.354 | 0.367 |  |  |  |  |  | 0.807 | 0.873 | 1.22 | 0.864 | 0.77
